Experimental data published in patent US4087417A, “Hexapeptides and methods for their production” (Parke, Davis & Company, priority 1976, dated 1978).

System: LRF (luteinizing hormone release factor) induced luteinizing hormone (LH) release
Test: In vitro LRF antagonist test in rat anterior pituitary cell cultures
Assay type: cell-based
Excerpt: Hexapeptides of this invention were screened for LRF antagonist activity in vitro using rat anterior pituitary cell cultures as described by Vale et. al. [Endocrinology, 91, 562 (1972)]. The inhibition of LRF (luteinizing hormone release factor) induced luteinizing hormone (LH) release into the culture medium is the endpoint of this in vitro bioassay.

[1] = compound 1×10^-7 molar, run with LRF Control 3.5×10^-10 molar
[2] = compound 2×10^-7 molar, run with LRF Control 3.5×10^-10 molar
[3] = compound 3.5×10^-7 molar, run with LRF Control 3.5×10^-10 molar
[4] = compound 6×10^-7 molar, run with LRF Control 3.5×10^-10 molar
[5] = compound 6×10^-8 molar, run with LRF Control 3.5×10^-10 molar
[6] = compound 1×10^-6 molar, run with LRF Control 2.5×10^-10 molar

For “N^α -t-Butoxycarbonyl-L-tryptophyl-N^im -benzyl-L-histidyl-O-benzyl-L-seryl-O-benzyl-L-tyrosyl-L-prolyl-D-alanine N-ethylamide”, the “% LH Release Inhibition” value [1] was 49%, the “LH Value” [1] was 27.52 ng/mL and the “% LH Release Inhibition” value [2] was 93%. The “LH Value” [2] was 14.63 ng/mL, the “% LH Release Inhibition” value [3] was 104% and the “LH Value” [3] was 11.46 ng/mL. The “% LH Release Inhibition” value [4] was 106%, the “LH Value” [4] was 10.90 ng/mL and the “% LH Release Inhibition” value [5] was 11%. The “LH Value” [5] was 38.53 ng/mL.
“N^α -t-Butoxycarbonyl-L-tryptophyl-N^im -benzyl-L-histidyl-O-benzyl-L-seryl-O-benzyl-L-tyrosyl-L-prolyl-D-alanine methyl ester” was tested, and the “% LH Release Inhibition” value [6] was 85% and the “LH Value” [6] was 11.04 ng/mL.
“LRF Control: luteinizing hormone releasing factor, also referred to as luteinizing hormone releasing hormone, LH-RH; stimulates secretion of luteinizing hormone (QHWSYGLRPG; Gonadoliberin-1; UniProt P01148 24-33, looked up) [reference compound]” was tested, and the “LH Value” (LRF alone 2.5×10^-10 molar (first run)) was 38.98 ng/mL and the “LH Value” (LRF alone 3.5×10^-10 molar (second run)) was 41.70 ng/mL.
